In patent publication US10710993B2, “Benzofuran pyrazole amine kinase inhibitor” (Hangzhou REX Pharmaceutical Co., LTD., priority 2016, dated 2020):

Experiments:
Wild-Type ALK = molecular target: T1, Wild-Type ALK (Homo sapiens, UniProt Q9UM73); experiment: Z'-LYTE (FRET) ALK kinase inhibitory activity; format: biochemical
T1 construct: purchased Life Technology
Method: (§1) The kinase activity assay was determined by using kinase assay panel (Life Technology) and the result was in table 1.

TEL-ALK-F1174L-BaF3 = molecular target: T2, TEL-ALK-F1174L-BaF3 (Homo sapiens, UniProt Q9UM73, F1174L, cells depend on it); experiment: Cell proliferation experiment (Cell-Titer GLO), TEL-ALK-F1174L-BaF3; format: cell-based; settings: 72 h, read-out: IC50 TEL-ALK F1174L-BaF3
T2 construct: fused on or other part: TEL (ETV6) N-terminal oligomerising part fused before the ALK intracellular/kinase part; P41212 (Transcription factor ETV6)
T2 sequence (Q9UM73 whole entry F1174L, the tested form may be a part): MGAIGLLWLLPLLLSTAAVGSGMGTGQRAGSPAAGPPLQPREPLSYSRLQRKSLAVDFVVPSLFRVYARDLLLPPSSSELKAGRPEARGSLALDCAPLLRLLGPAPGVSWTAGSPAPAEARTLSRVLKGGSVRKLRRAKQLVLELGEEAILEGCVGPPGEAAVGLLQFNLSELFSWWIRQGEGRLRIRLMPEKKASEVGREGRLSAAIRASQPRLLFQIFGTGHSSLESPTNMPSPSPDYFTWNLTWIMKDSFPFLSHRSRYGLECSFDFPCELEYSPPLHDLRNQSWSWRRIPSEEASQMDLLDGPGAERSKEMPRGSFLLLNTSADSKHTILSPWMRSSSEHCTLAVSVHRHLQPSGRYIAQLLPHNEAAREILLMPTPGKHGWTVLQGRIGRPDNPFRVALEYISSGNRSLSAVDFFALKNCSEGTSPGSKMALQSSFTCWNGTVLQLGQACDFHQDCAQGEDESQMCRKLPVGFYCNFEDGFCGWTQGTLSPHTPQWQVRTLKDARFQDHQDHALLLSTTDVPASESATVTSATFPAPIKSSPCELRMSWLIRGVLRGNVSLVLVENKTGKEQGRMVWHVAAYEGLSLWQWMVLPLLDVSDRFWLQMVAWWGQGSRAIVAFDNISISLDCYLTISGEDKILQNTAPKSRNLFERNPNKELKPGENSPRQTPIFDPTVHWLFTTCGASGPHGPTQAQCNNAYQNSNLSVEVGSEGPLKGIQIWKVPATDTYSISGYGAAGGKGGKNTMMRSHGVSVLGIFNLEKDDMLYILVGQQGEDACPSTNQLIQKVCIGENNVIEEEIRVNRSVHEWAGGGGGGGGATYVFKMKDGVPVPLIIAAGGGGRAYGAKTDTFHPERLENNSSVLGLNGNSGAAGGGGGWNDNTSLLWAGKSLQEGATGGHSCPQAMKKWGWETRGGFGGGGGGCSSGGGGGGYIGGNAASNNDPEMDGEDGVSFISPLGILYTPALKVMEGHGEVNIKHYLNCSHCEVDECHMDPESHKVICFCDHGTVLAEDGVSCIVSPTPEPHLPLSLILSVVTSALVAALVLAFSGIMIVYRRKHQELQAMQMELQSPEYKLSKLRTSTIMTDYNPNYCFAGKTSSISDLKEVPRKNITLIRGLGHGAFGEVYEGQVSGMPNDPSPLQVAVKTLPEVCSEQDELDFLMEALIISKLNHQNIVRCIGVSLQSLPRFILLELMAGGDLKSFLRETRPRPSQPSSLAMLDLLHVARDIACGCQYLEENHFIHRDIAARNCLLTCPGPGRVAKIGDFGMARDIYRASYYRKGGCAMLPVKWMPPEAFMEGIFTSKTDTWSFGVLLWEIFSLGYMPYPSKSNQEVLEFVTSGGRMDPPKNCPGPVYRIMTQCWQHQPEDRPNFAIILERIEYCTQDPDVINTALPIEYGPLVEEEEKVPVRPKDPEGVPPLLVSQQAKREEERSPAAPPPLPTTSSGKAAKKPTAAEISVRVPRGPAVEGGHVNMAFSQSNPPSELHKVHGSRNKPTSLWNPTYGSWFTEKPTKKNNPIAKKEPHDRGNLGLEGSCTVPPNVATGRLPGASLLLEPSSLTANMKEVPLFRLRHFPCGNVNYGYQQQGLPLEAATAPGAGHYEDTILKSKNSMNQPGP
Method: (§2) Compounds to be tested: Positive compound Ceritinib and the compounds obtained by the examples of the present invention.
(§3) Cell lines: Karpas-299 and NCI-H3122 which were purchased from the Nanjing kebai biotechnology Co. LTD; TEL-ALK-F1174L-BaF3, TEL-ALK-G1202R-BaF3, TEL-ALK-C1156Y-BaF3 and TEL-ALK-L1196M-BaF3 which were purchased from Hefei zhongkopruisheng biological medicine technology Co. LTD.
(§4) Method: Cells were seeded in 96-well plates for 24 h in growth media containing 10% fetalbovine serum (FBS) and cultured overnight at 37° C. The following day, serial dilutions of compounds or appropriate control were added to the designated wells, and cells were incubated at 37° C. for 72 h. A Cell Titer Glo assay (Promega) was then performed to determine the relative cell numbers. IC50 values were calculated by concentration-response curve fitting using a four-parameter analytical method with Graphpad 6.0. Drug inhibition rate (%)=100%−[OD(Compound)−OD(blank)]/[OD(vehicle)−OD(blank)]×100% Equation: […]

TEL-ALK-G1202R-BaF3 = molecular target: T3, TEL-ALK-G1202R-BaF3 (Homo sapiens, UniProt Q9UM73, G1202R, cells depend on it); experiment: Cell proliferation experiment (Cell-Titer GLO), TEL-ALK-G1202R-BaF3; format: cell-based; settings: 72 h, read-out: IC50 TEL-ALK G1202R-BaF3
T3 construct: fused on or other part: TEL (ETV6) N-terminal oligomerising part fused before the ALK intracellular/kinase part; P41212 (Transcription factor ETV6)
T3 sequence (Q9UM73 whole entry G1202R, the tested form may be a part): as the sequence (Q9UM73 whole entry F1174L, the tested form may be a part) above, with L1174F, G1202R counted along it
Method: as §2, §3, §4

NCI-H3122 = experiment: Cell proliferation experiment (Cell-Titer GLO), NCI-H3122; format: cell-based; settings: Homo sapiens, 72 h
Method: as §2, §3, §4

ALK L1196M = molecular target: T4, ALK L1196M (Homo sapiens, UniProt Q9UM73, L1196M); experiment: LanthaScreen Eu Kinase Binding Assay (TR-FRET) on ALK mutant
T4 construct: purchased Life Technology
T4 sequence (Q9UM73 19-1620 L1196M): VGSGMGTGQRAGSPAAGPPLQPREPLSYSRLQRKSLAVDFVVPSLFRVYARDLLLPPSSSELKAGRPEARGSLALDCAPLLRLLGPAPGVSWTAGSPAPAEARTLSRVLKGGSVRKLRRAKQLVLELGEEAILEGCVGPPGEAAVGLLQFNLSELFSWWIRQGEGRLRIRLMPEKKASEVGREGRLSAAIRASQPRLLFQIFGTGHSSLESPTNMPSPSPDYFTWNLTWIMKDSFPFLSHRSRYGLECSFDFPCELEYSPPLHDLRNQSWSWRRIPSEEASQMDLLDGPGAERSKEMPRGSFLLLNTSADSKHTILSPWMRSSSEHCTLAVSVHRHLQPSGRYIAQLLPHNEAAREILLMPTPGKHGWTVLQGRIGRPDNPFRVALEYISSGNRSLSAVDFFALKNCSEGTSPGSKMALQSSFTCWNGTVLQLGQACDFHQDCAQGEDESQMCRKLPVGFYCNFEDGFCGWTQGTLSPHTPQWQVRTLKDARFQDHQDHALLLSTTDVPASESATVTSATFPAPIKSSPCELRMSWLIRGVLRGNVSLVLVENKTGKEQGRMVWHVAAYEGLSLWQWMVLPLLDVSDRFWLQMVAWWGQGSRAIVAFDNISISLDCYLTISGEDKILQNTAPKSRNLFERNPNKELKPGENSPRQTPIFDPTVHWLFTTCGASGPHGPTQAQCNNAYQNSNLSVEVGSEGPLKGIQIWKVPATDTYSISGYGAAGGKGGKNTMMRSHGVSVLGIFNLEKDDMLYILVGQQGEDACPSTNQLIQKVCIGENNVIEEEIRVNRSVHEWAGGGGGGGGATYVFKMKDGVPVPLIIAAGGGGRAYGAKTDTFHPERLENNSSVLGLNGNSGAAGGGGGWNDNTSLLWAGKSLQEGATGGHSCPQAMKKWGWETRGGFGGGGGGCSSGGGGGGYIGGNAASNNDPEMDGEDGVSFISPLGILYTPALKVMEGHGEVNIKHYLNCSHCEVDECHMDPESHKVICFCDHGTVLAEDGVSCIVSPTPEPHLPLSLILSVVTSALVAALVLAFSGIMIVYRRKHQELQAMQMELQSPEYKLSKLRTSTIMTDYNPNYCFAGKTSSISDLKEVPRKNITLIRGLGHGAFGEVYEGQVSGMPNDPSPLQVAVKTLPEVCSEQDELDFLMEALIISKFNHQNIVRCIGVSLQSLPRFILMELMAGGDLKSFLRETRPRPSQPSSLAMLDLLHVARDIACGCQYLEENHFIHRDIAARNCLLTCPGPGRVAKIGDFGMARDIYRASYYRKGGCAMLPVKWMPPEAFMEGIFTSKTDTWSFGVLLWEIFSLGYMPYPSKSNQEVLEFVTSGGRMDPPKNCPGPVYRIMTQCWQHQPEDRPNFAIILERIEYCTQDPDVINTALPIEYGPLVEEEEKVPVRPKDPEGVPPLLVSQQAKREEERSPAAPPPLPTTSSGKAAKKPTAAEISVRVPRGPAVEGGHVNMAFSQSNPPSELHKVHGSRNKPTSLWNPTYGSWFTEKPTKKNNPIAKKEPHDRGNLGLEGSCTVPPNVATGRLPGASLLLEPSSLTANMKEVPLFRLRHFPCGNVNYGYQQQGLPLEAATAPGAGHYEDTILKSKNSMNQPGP
From the text: Meanwhile, The LanthaScreen® Eu Kinase Binging Assay (TR-FRET) method was used for determining ALK Mutants (such as ALK L1196M) inhibitory activity IC50. LanthaScreen Eu kinase binding experiment detected Alexa Fluor conjugate or kinase “tracer” binding by adding Eu labeled antibodies or anti-label antibodies. The combination of tracer and antibody with kinase leads to a high level of FRET, whereas the use of kinase inhibitors in place of tracer may cause FRET loss.
as §1

T1 sequence (Q9UM73 19-1620): as the sequence (Q9UM73 19-1620 L1196M) above, with M1178L counted along it

Compound | IC50 (Wild-Type ALK) [nM] | GI50 (TEL-ALK-F1174L-BaF3) [nM] | GI50 (TEL-ALK-G1202R-BaF3) [nM] | IC50 (NCI-H3122) [nM] | IC50 (ALK L1196M) [nM]
Cc1cc(Nc2ncc(C(F)(F)F)c(Nc3cn(C)nc3S(=O)(=O)C(C)C)n2)c2c(c1C1CCN(CCO)CC1)C[C@@H](C)O2 [REX-D5, (R)-2-(4-(7-((4-((3-(isopropylsulfonyl)-1-methyl-1H-pyrazol-4-yl)amino)-5-(trifluoromethyl)pyrimidin-2-yl)amino)-2,5-dimethyl-2,3-dihydrobenzofuran-4-yl)piperidin-1-yl)ethanol] | 15 | 80.1 | > 180 | 10.7 | < 0.5
CC(C)S(=O)(=O)c1nn(C)cc1Nc1nc(Nc2cc(F)c(C3CCN(C)CC3)c3c2O[C@H](C)C3)ncc1C(F)(F)F [REX-D8, (R)—N^2-(5-fluoro-2-methyl-4-(1-methylpiperidin-4-yl)-2,3-dihydrobenzofuran-7-yl)-N^4-(3-(isopropylsulfonyl)-1-methyl-1H-pyrazol-4-yl)-5-(trifluoromethyl)pyrimidine-2,4-diamine] | – | 11.4 | > 180 | – | –
Cc1cc(Nc2ncc(C(F)(F)F)c(Nc3cn(C4CC4)nc3S(=O)(=O)C(C)C)n2)c2c(c1C1CCN(C)CC1)C[C@@H](C)O2 [REX-D9, (R)—N^4-(1-cyclopropyl-3-(isopropylsulfonyl)-1H-pyrazol-4-yl)-N^2-(2,5-dimethyl-4-(1-methylpiperidin-4-yl)-2,3-dihydrobenzofuran-7-yl)-5-(trifluoromethyl)pyrimidine-2,4-diamine] | 15.8 | 51.8 | > 180 | 11.8 | 1.02
Cc1cc(Nc2ncc(C(F)(F)F)c(Nc3cn(C)nc3S(=O)(=O)CC(C)C)n2)c2c(c1C1CCN(C)CC1)C[C@@H](C)O2 [REX-D10, (R)—N^2-(2,5-dimethyl-4-(1-methylpiperidin-4-yl)-2,3-dihydrobenzofuran-7-yl)-N^4-(3-(isobutylsulfonyl)-1-methyl-1H-pyrazol-4-yl)-5-(trifluoromethyl)pyrimidine-2,4-diamine] | 17.1 | < 200 | > 180 | 14.2 | < 0.5
Cc1cc(Nc2ncc(Cl)c(Nc3cn(C)nc3S(=O)(=O)C(C)C)n2)c2c(c1C1CCN(CCO)CC1)C[C@@H](C)O2 [REX-D11, (R)-2-(4-(7-((5-chloro-4-((3-(isopropylsulfonyl)-1-methyl-1H-pyrazol-4-yl)amino)pyrimidin-2-yl)amino)-2,5-dimethyl-2,3-dihydrobenzofuran-4-yl)piperidin-1-yl)ethanol] | 8.46 | 10.7 | > 180 | 10.6 | < 0.5
CC(=O)N1CCC(c2c(C)cc(Nc3ncc(Cl)c(Nc4cn(C)nc4S(=O)(=O)C(C)C)n3)c3c2C[C@@H](C)O3)CC1 [REX-D12, (R)-1-(4-(7-((5-chloro-4-((3-(isopropylsulfonyl)-1-methyl-1H-pyrazol-4-yl)amino)pyrimidin-2-yl)amino)-2,5-dimethyl-2,3-dihydrobenzofuran-4-yl)piperidin-1-yl)ethanone] | 9.21 | 11.6 | > 180 | 10.7 | 1.07
Cc1cc(Nc2ncc(Cl)c(Nc3cn(C)nc3S(=O)(=O)C(C)C)n2)c2c(c1C1CCN(C3CCNCC3)CC1)C[C@@H](C)O2 [REX-D13, (R)—N^2-(4-([1,4′-bipiperidin]-4-yl)-2,5-dimethyl-2,3-dihydrobenzofuran-7-yl)-5-chloro-N^4-(3-(isopropylsulfonyl)-1-methyl-1H-pyrazol-4-yl)pyrimidine-2,4-diamine] | 18.8 | 94.3 | > 180 | 33.7 | 1.02
CC(C)S(=O)(=O)c1nn(C)cc1Nc1nc(Nc2cc(F)c(C3CCNCC3)c3c2O[C@H](C)C3)ncc1Cl [REX-D21, (R)-5-chloro-N^2-(5-fluoro-2-methyl-4-(piperidin-4-yl)-2,3-dihydrobenzofuran-7-yl)-N^4-(3-(isopropylsulfonyl)-1-methyl-1H-pyrazol-4-yl)pyrimidine-2,4-diamine] | – | 17.8 | > 180 | – | –
Cc1cc(Nc2ncc(Cl)c(Nc3cn(C)nc3S(=O)(=O)C(C)C)n2)c2c(c1C1CCNCC1)CCC(C)O2 (stereo not drawn) [REX-D22, 5-chloro-N^2-(2,6-dimethyl-5-(piperidin-4-yl)chroman-8-yl)-N^4-(3-(isopropylsulfonyl)-1-methyl-1H-pyrazol-4-yl)pyrimidine-2,4-diamine] | – | 32.6 | > 180 | – | –
CC(C)S(=O)(=O)c1nn(C)cc1Nc1nc(Nc2cc(F)c(C3CCN(C)CC3)c3c2O[C@H](C)C3)ncc1Cl [REX-D24, (R)-5-chloro-N^2-(5-fluoro-2-methyl-4-(1-methylpiperidin-4-yl)-2,3-dihydrobenzofuran-7-yl)-N^4-(3-(isopropylsulfonyl)-1-methyl-1H-pyrazol-4-yl)pyrimidine-2,4-diamine] | – | < 10 | > 180 | – | –
Cc1cc(Nc2ncc(Cl)c(Nc3cn(C)nc3S(=O)(=O)C(C)C)n2)c2c(c1C1CCN(C)CC1)CCC(C)O2 (stereo not drawn) [REX-D25, 5-chloro-N^2-(2,6-dimethyl-5-(1-methylpiperidin-4-yl)chroman-8-yl)-N^4-(3-(isopropylsulfonyl)-1-methyl-1H-pyrazol-4-yl)pyrimidine-2,4-diamine] | – | 11.1 | > 180 | – | –
Cc1cc(Nc2nc(Nc3cn(C)nc3S(=O)(=O)C(C)C)c3sccc3n2)c2c(c1C1CCNCC1)C[C@@H](C)O2 [REX-D29, (R)—N^2-(2,5-dimethyl-4-(piperidin-4-yl)-2,3-dihydrobenzofuran-7-yl)-N^4-(3-(isopropylsulfonyl)-1-methyl-1H-pyrazol-4-yl)thieno[3,2-d]pyrimidine-2,4-diamine] | – | > 500 | > 180 | – | –
Cc1cc(Nc2nc(Nc3cn(C)nc3S(=O)(=O)C(C)C)c3sccc3n2)c2c(c1C1CCN(C)CC1)C[C@@H](C)O2 [REX-D30, (R)—N^2-(2,5-dimethyl-4-(1-methylpiperidin-4-yl)-2,3-dihydrobenzofuran-7-yl)-N^4-(3-(isopropylsulfonyl)-1-methyl-1H-pyrazol-4-yl)thieno[3,2-d]pyrimidine-2,4-diamine] | – | > 500 | > 180 | – | –
Cc1cc(Nc2ncc(Cl)c(Nc3cn(C)nc3S(=O)(=O)CC(C)C)n2)c2c(c1C1CCNCC1)C[C@@H](C)O2 [REX-D37, (R)-5-chloro-N^2-(2,5-dimethyl-4-(piperidin-4-yl)-2,3-dihydrobenzofuran-7-yl)-N^4-(3-(isobutylsulfonyl)-1-methyl-1H-pyrazol-4-yl)pyrimidine-2,4-diamine] | – | 58.7 | > 180 | – | –
Cc1cc(Nc2ncc(Cl)c(Nc3cn(C)nc3S(=O)(=O)CC(C)C)n2)c2c(c1C1CCN(C)CC1)C[C@@H](C)O2 [REX-D38, (R)-5-chloro-N^2-(2,5-dimethyl-4-(1-methylpiperidin-4-yl)-2,3-dihydrobenzofuran-7-yl)-N^4-(3-(isobutylsulfonyl)-1-methyl-1H-pyrazol-4-yl)pyrimidine-2,4-diamine] | – | < 10 | > 180 | – | –
Cc1cc(Nc2ncc(Cl)c(Nc3cn(C)nc3S(=O)(=O)CC(C)C)n2)c2c(c1C1CCN(CCO)CC1)C[C@@H](C)O2 [REX-D39, (R)-2-(4-(7-((5-chloro-4-((3-(isobutylsulfonyl)-1-methyl-1H-pyrazol-4-yl)amino)pyrimidin-2-yl)amino)-2,5-dimethyl-2,3-dihydrobenzofuran-4-yl)piperidin-1-yl)ethanol] | – | < 10 | > 180 | – | –
Cc1cc(Nc2ncc(Cl)c(Nc3cn(C4CC4)nc3S(=O)(=O)CC(C)C)n2)c2c(c1C1CCNCC1)C[C@@H](C)O2 [REX-D40, (R)-5-chloro-N^4-(1-cyclopropyl-3-(isobutylsulfonyl)-1H-pyrazol-4-yl)-N^2-(2,5-dimethyl-4-(piperidin-4-yl)-2,3-dihydrobenzofuran-7-yl)pyrimidine-2,4-diamine] | – | 94.8 | > 180 | – | –
Cc1cc(Nc2ncc(Cl)c(Nc3cn(C4CC4)nc3S(=O)(=O)CC(C)C)n2)c2c(c1C1CCN(C)CC1)C[C@@H](C)O2 [REX-D41, (R)-5-chloro-N^4-(1-cyclopropyl-3-(isobutylsulfonyl)-1H-pyrazol-4-yl)-N^2-(2,5-dimethyl-4-(1-methylpiperidin-4-yl)-2,3-dihydrobenzofuran-7-yl)pyrimidine-2,4-diamine] | – | 23.7 | > 180 | – | –
